A short description of this data set: Chemical stability of the amide linkage (hydrolysis in NH4OH). The settings on record: 30% NH4OH, 55° C., 24 h, assessed by TLC. It counts as physicochemical. The protocol:
To assess the chemical stability of the amide linkages in the synthesized compounds, the monomer (6) (T'gly) was subjected to hydrolysis in 30% NH4 OH at 55° C. for 24 h. […] Thus, the amide bond appears to be stable with respect to general base catalyzed hydrolysis. From a practical perspective, this stability to 30% NH4 OH at 55° C. confirms that the amide linkage can withstand the hydrolysis required to remove base protecting groups which are necessary for polymerization of A,C and G homologues.

Structures are written as SMILES.

Regarding `Cc1cn([C@H]2C[C@H](N)[C@@H](C(=O)NCC(=O)O)O2)c(=O)[nH]c1=O` [Compound 6, 1-(3-amino-2,3-dideoxy-β-D-erythro-pentofuranosyl-5-glycine uronate)thymine], the “hydrolysis of the amide linkage” value is “no hydrolysis of the amide linkage was detected”.
